SMILES strings stand for the structures. Active and inactive are the calls of the source. The rule behind the calls is not given here.

By IC50 is commonly meant the point on the concentration scale where inhibition reaches its midpoint.

The test concerns the target glucose-6-phosphate dehydrogenase-6-phosphogluconolactonase (Plasmodium falciparum 3D7). Put plainly: PfG6PD inhibitor potency, dose response, biochemical, fluorescence intensity (AID 504765). The conditions noted are these: Recombinant PfG6PD enzyme, fluorescence intensity (NADPH).

For the compound `CC(C)c1nnc(NC(=O)c2sc3ccccc3c2Cl)s1`, the IC50 was 6.44 µM.

For the compound `O=[N+]([O-])c1cnc(Sc2ccncn2)c([N+](=O)[O-])c1`, the IC50 was 9.62 µM.

Turning to `O=C1C=CC(=O)N1CCCCCCCCCCN1C(=O)C=CC1=O`, the IC50 was 13.5 µM.

As to `O=C(CNC(=O)c1ccco1)OCC(=O)c1ccc([N+](=O)[O-])cc1`, the half-maximal inhibitory concentration (IC50) is 19.1 µM.

Regarding `Cc1[nH]c2ccccc2c1/C=N/Nc1nncn1N`, the half-inhibitory concentration (IC50) was 5.61 µM.

With `Nc1cc(N)c(OCC(F)(F)F)cc1OCC(F)(F)F`, the IC50 is 1.61 µM.

For `Cc1nc2ccccn2c1-c1ccnn1S(=O)(=O)c1ccc(F)cc1`, the IC50 is 15.2 µM.

In the case of `CCOc1ccc(N(CC(=O)N/N=C/c2cc([N+](=O)[O-])ccc2Cl)S(C)(=O)=O)cc1`, the half-inhibitory concentration (IC50) is 15.1 µM.

Regarding `O=C(O)CSc1cc(NS(=O)(=O)c2cccc([N+](=O)[O-])c2)c2ccccc2c1O`, the IC50 is 1.34 µM.

`CC1(OC(=O)C2CCCC2)C(=O)C=C2C=C(c3ccsc3)N(CCc3c[nH]c4ccccc34)C=C2C1=O` (configuration not stated): the half-inhibitory concentration (IC50) is 4.97 µM.

In the case of `CN(C)c1ccc(C=c2c3cc([N+](=O)[O-])ccc3n3c2cc(-c2ccccc2)[n+]3C)cc1`, the IC50 is 8.44 µM.

On to `O=C(Nc1nnc(S(=O)(=O)N2CCOCC2)s1)c1ccc(F)cc1`, for which the half-maximal inhibitory concentration (IC50) was 11.4 µM.

`O=C(CCc1ccc(O)c(O)c1)N/N=C/c1cc2c(cc1[N+](=O)[O-])OCO2`: the IC50 is 14 µM.

As for `Cc1ccsc1/C=N\NC(=O)CC(=O)NCc1ccccc1`, the IC50 is 6.41 µM.

Regarding `CCN(CC)C(=O)c1c(C)[nH]c(=S)c(C#N)c1-c1ccco1`, the IC50 result was “inactive”.

On to `[O-][N+](=Cc1ccccc1)c1ccc(Cl)cc1`, for which the half-inhibitory concentration (IC50) is 3.34 µM.

With `COc1ccc(Cl)cc1NC(=O)c1cccc([N+](=O)[O-])c1O`, the IC50 is 8.87 µM.

As to `CC1(OC(=O)C2CCCC2)C(=O)C=C2C=C(c3ccsc3)N(Cc3ccc4c(c3)OCO4)C=C2C1=O` (configuration not stated), the concentration for half-maximal inhibition (IC50) is 11.1 µM.

For `C=CCN1C=C2C(=O)C(C)(OC(=O)CCC(=O)OC)C(=O)C(Br)=C2C=C1c1ccc(OC)cc1` (configuration not stated), the concentration for half-maximal inhibition (IC50) was 2.79 µM.

As for `CCC(C)(C)c1nnc(NC(=O)C2CCN(C(=O)c3ccco3)CC2)s1`, the IC50 entry was “inactive”.

For `CCC(C)N(CCNC(=O)c1ccc2c(c1)NC(=O)c1ccccc1S2)C1CCCCC1` (configuration not stated), the IC50 is 6.48 µM.

In the case of `OCc1ccccc1SSc1ccccc1CO`, the IC50 was 16.5 µM.

On to `COc1cccc(/C=N/NC(=O)c2c(C)nc3ccc(Br)cn23)c1`, for which the IC50 is 2.86 µM.

Consider `CCN1/C(=C/C=C/C=C/C=C/c2sc3ccccc3[n+]2CC)Sc2ccccc21`, for which the half-maximal inhibitory concentration (IC50) is 7.54 µM.

With `O=c1c2cc([N+](=O)[O-])ccc2sn1-c1ccccc1`, the IC50 is 5.27 µM.

On to `CCN(CC)C(=S)SSC(=S)N(CC)CC`, for which the 50% inhibitory concentration (IC50) is 10.1 µM.

As to `Cc1ccc2nc(-c3ccc(NC(=S)NC4CC(C)(C)NC(C)(C)C4)cc3)sc2c1`, the IC50 was 2.39 µM.

For the compound `O=c1[nH]nc(CNc2ccc(O)cc2)c2ccccc12`, the IC50 entry is “inactive”.

`Cc1ccc(NNS(=O)(=O)c2ccc(C)cc2)cc1`: the IC50 was 12.6 µM.

In the case of `CC1=C(C)CS(=O)N(S(=O)(=O)c2ccc(Cl)cc2)C1` (configuration not stated), the IC50 result was “inactive”.

For the compound `CCn1c(SCC(=O)Nc2ccccc2OC)nnc1-c1cnccn1`, the IC50 result was “inactive”.

Turning to `Oc1ccc(C23CC4CC(CC(C4)C2)C3)cc1O`, the IC50 entry was “inactive”.

`OCCN1CCN(C(=S)c2ccc(-c3ccccc3)cc2)CC1`: the IC50 is 19.6 µM.

Take `COC1=C(Br)C(=O)c2nc(C)ccc2C1=O`: the IC50 was 4.24 µM.

Consider `O=C(COC(=O)c1cnccn1)c1ccc([N+](=O)[O-])cc1`, for which the IC50 is 12.2 µM.

With `CCc1nnc(NC(=O)c2ccc(Cl)nc2)s1`, the IC50 is 15.5 µM.

For `Cc1nnc(Sc2cc(NCCO)c([N+](=O)[O-])c3nonc23)s1`, the half-maximal inhibitory concentration (IC50) was 5.56 µM.

On to `Nc1c(O)cccc1C(=O)O`, for which the IC50 was 1.44 µM.

Take `COc1ccc(CCn2c(NN)nc3c2c(=O)[nH]c(=O)n3C)cc1`: the 50% inhibitory concentration (IC50) was 7.35 µM.

Regarding `CCCNC(=O)Cn1sc2nc(C)cc(C)c2c1=O`, the IC50 is 3.13 µM.

In the case of `O=c1c2ccccc2sn1-c1nccs1`, the IC50 is 1.69 µM.

Consider `O=C(O)c1cccc(N2C(=O)C=CC2=O)c1`, for which the IC50 is 15.5 µM.

For the compound `NCCc1cc(O)c(O)cc1O`, the half-maximal inhibitory concentration (IC50) is 3.51 µM.

In the case of `O=[N+]([O-])c1c(NCCO)cc(Sc2nc3ccccc3s2)c2nonc12`, the half-maximal inhibitory concentration (IC50) was 10.2 µM.

Regarding `CCOc1ccc2ccccc2c1/C=N/NC(=O)c1ccncc1`, the IC50 was 3.49 µM.

In the case of `O=C1NC(=O)C(=Cc2ccc(-c3ccccc3[N+](=O)[O-])o2)C(=O)N1`, the half-inhibitory concentration (IC50) is 10.9 µM.

Take `COc1ccc(C(=O)Nc2nnc(S(=O)(=O)N3CCOCC3)s2)cc1`: the IC50 was 7 µM.

As for `CCN1CCN(c2nc(C)nc3c2sc(=S)n3C)CC1`, the IC50 was 15.1 µM.

For the compound `O=c1c2cc(F)ccc2sn1-c1ccccc1Cl`, the IC50 is 4.29 µM.

For `COc1cc(N)c2ncccc2c1SC`, the IC50 entry was “inactive”.

With `Cc1ccc(NS(=O)(=O)c2ccccc2Cl)c2c1CC(C)(C)O2`, the IC50 is 8.18 µM.

Turning to `O=C(Nc1ccccn1)c1sc2cc([N+](=O)[O-])ccc2c1Cl`, the IC50 result is “inactive”.

Consider `O=C1C=C(NCCc2cc(Br)c(O)c(Br)c2)C(=O)c2ncccc21`, for which the IC50 was 1.35 µM.

With `Cc1ccc(C(=O)Nc2nnc(S(=O)(=O)N3CCC(C)CC3)s2)cc1`, the IC50 result is “inactive”.

In the case of `COc1cccc(C2(c3cccc(OC)c3)CC2C(=O)Nc2ccc(F)cc2)c1` (configuration not stated), the IC50 was 10.3 µM.

Turning to `COc1cc(/C=C/C(=O)c2ccc([N+](=O)[O-])o2)ccc1O`, the IC50 was 5.16 µM.

Consider `O=C(Cn1sc2ccccc2c1=O)Nc1ccc(Br)cc1`, for which the half-maximal inhibitory concentration (IC50) was 5.16 µM.

Consider `Cc1ccc(C)c(-n2sc3ccc(F)cc3c2=O)c1`, for which the IC50 is 1.24 µM.

`O=[N+]([O-])c1ccc(N/N=C/c2ccc(O)c(O)c2O)c(S(=O)(=O)N2CCOCC2)c1`: the concentration for half-maximal inhibition (IC50) was 8.74 µM.

Take `Nc1[nH]c(=O)[nH]c(=O)c1N=Cc1ccccc1`: the IC50 is 3.29 µM.

As for `O=C(CCC(=O)Nc1ccccc1Cl)N/N=C/c1ccccc1`, the IC50 was 3.17 µM.

Turning to `c1cc2c(cc1NC1CCCCCC1)OCO2`, the half-maximal inhibitory concentration (IC50) is 19.2 µM.

With `CCN(CC)c1ccc(NC(=O)c2ccccc2Br)cc1S(=O)(=O)Nc1ccccc1OC`, the IC50 entry was “inactive”.

Consider `O=C1Nc2cc(C(=O)NCCCN3CCCC3)ccc2S/C1=C\c1ccccc1`, for which the half-inhibitory concentration (IC50) is 9.3 µM.

For `O=C1C=CC(=O)N1c1ccc2c(c1)C(NC(=O)C(F)(F)F)c1ccccc1-2` (configuration not stated), the 50% inhibitory concentration (IC50) is 9.14 µM.

As for `Cc1ccccc1-n1sc2cc(F)ccc2c1=O`, the IC50 was 2.15 µM.

With `CC1CCc2c(nc3sc4c(c3c2N)CCCC4)C1` (configuration not stated), the IC50 was 14.9 µM.

On to `CCOc1cc(CNc2ccc(N3CCCC3)cc2)cc(Cl)c1OC`, for which the half-inhibitory concentration (IC50) was 3.87 µM.

With `Nc1ccc(S(=O)(=O)c2cc(O)c3ccccc3c2O)cc1`, the concentration for half-maximal inhibition (IC50) is 5.79 µM.

For `COc1cc(NCCCn2cnc(C(=O)Nc3ccc(C)c(C)c3)n2)cc(OC)c1OC`, the IC50 is > 80 µM (inactive).

In the case of `Cc1cccc(-n2c(=S)[nH]c3sc4c(c3c2=O)CCc2ccccc2-4)c1`, the IC50 entry is “inactive”.

Regarding `Cc1ccc(-c2c(C(=O)N/N=C/c3cccs3)nnn2-c2nonc2N)cc1`, the half-maximal inhibitory concentration (IC50) is 3.91 µM.

As for `CSc1nnc(NC(=O)c2ccc3c(c2)OCO3)s1`, the IC50 is 2.82 µM.

Consider `CCN=c1scc(C)n1/N=C/c1ccc(O)c(O)c1O`, for which the IC50 is 6.91 µM.

Turning to `O=C(NC1=CC(=O)c2ccccc2C1=O)c1ccccc1`, the concentration for half-maximal inhibition (IC50) is 2.53 µM.

Take `CCC(=O)OCCNc1cc(Sc2nc3ccccc3s2)c2nonc2c1[N+](=O)[O-]`: the concentration for half-maximal inhibition (IC50) was 16.1 µM.

With `CCOC(=O)Cc1csc(-n2sc3ccccc3c2=O)n1`, the IC50 was 2.82 µM.

As for `COc1ccc(CCn2c(NN=C3CCCC3)nc3c2c(=O)[nH]c(=O)n3C)cc1`, the IC50 was 9.56 µM.

`CC1N(C)c2cccc3cccc(c23)N1C`: the IC50 is 11.2 µM.

`O=c1c2ccccc2sn1-c1cccc(Cl)c1`: the half-inhibitory concentration (IC50) is 4.18 µM.

For `C#CCCc1cscc1/C=[N+](\[O-])c1ccc(C(=O)OCC)cc1`, the IC50 was 2.98 µM.

For `CCn1c(SCc2nc3scc(-c4ccccc4)c3c(=O)[nH]2)nnc1-c1cccs1`, the IC50 was 17.3 µM.

Regarding `Cc1cc(C)c2c(=O)n(CC(=O)NC3CCCC3)sc2n1`, the IC50 was 1.97 µM.

In the case of `Cc1c(/C=C/C(=O)c2ccc(Cl)s2)cnn1C`, the half-maximal inhibitory concentration (IC50) was 9.12 µM.

As for `Cc1ccc(-c2csc(NC(=O)c3ccccc3F)c2C(=O)O)cc1`, the 50% inhibitory concentration (IC50) was 8.06 µM.

On to `CN1CC[C@@]2(C)c3cc(O)ccc3N(C)[C@@H]12`, for which the IC50 was 1.52 µM.

On to `Cc1cc(C)nc(SSc2nc(C)cc(C)n2)n1`, for which the concentration for half-maximal inhibition (IC50) was 3.06 µM.

Regarding `COCCNC(=S)Nc1ccc(N2CCOCC2)c(S(=O)(=O)Nc2ccc(Cl)cc2)c1`, the IC50 was 19.4 µM.

For `COc1ccc(NC(C)C(=O)N/N=C/c2cc(Br)ccc2OC)cc1` (configuration not stated), the IC50 is 8.77 µM.

In the case of `COc1cc(-c2cc(=O)c3c(O)c(OC)c(OC)c(O)c3o2)ccc1O`, the IC50 was 8.95 µM.

In the case of `COC(=O)CCC(=O)OC1(C)C(=O)C2=CN(c3ccccc3)C(c3ccc(OC)cc3)=CC2=C(Br)C1=O` (configuration not stated), the IC50 is 3.16 µM.

Regarding `O=C(Nc1nnc(S(=O)(=O)N2CCCCC2)s1)c1ccc(Cl)cc1`, the concentration for half-maximal inhibition (IC50) was 6.01 µM.

Consider `CCCCCCCCn1sccc1=O`, for which the IC50 was 3.75 µM.

For `COCCn1nnnc1C(c1cc2cc(OC)c(OC)cc2[nH]c1=O)N1CCN(c2ccc(O)cc2)CC1` (configuration not stated), the IC50 entry is “inactive”.

Take `C=CCOc1c(Cl)cc(CNc2ccc(N(C)C)cc2)cc1OC`: the half-maximal inhibitory concentration (IC50) is 9.87 µM.

In the case of `COc1ccc(-n2sc3ccccc3c2=O)cc1`, the IC50 was 1.49 µM.

In the case of `CCOc1ccccc1NS(=O)(=O)c1c(C)noc1C`, the 50% inhibitory concentration (IC50) is 9.95 µM.

For `C=CCN=c1scc(-c2ccco2)n1/N=C/c1ccc(O)c(O)c1O`, the IC50 result is “inactive”.

Regarding `CCc1ccc(S(=O)(=O)Nc2cc(SCC(=O)O)c(O)c3ccccc23)cc1`, the half-maximal inhibitory concentration (IC50) was 5.63 µM.

Consider `CCN1CCCC1CNC(=O)c1ccc2c(c1)NC(=O)/C(=C\c1ccccc1Cl)S2` (configuration not stated), for which the IC50 was 3.08 µM.

Consider `COc1cc(NCc2ccccc2)c2ncn(Cc3ccccc3)c2c1`, for which the IC50 is > 80 µM (inactive).

Turning to `CC(NC(=O)c1sc2cc([N+](=O)[O-])ccc2c1Cl)C(C)(C)C` (configuration not stated), the concentration for half-maximal inhibition (IC50) is 18.5 µM.

The record behind these values is PubChem BioAssay AID504765 (Sanford-Burnham Center for Chemical Genomics, 2011).
